This is an account of results in PubChem BioAssay AID624258 (Broad Institute, 2012).

This experiment is described as follows: SKN7 mediated toxicity in Saccharomyces cerevisiae, growth rescue counterscreen, dose confirmation (AID 624258).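 Also: growth read after three days of incubation at 30 °C; 0% = median of neutral control wells.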 Conditions: S. cerevisiae SKN7-toxicity growth rescue, plate reader. In general terms: The purpose of a counterscreen is to sort out artefacts and off-target activity.

Values joined by “and” are separate entries in the source; they are usually repeats but may differ in a detail not shown here. Identical values can stand only once. Active and inactive are the calls of the source. No rule for the calls is given here.

`CN(C)c1ccc(C=c2c3ccccc3n3c2c2c([n+]3C)CCCC2)cc1`: the growth rescue activity (at 19.5 µM (top of the series)) is -74.1% (inactive). Still for that read-out and setting: then `COc1ccc(N(C)S(=O)(=O)c2ccc(Cl)c(C(=O)NNC(=O)c3ccccc3O)c2)cc1`, with 4.7% (inactive); and `Oc1ccc(/C=N/Nc2ccc(C(F)(F)F)cn2)c(O)c1`, with -73.7% (inactive); and `Cn1c(-c2ccccc2)cnc1NCc1ccc(-c2ccccc2)cc1`, with -67.3% (inactive).

With `CCc1sc(C(=O)Nc2nc(-c3ccccn3)cs2)cc1C`, the growth rescue activity (at 19.5 µM (top of the series)) is -81% (inactive). Regarding `Cc1ccc(NC(=S)Nc2cccc3cnccc23)cc1C`, the growth rescue activity (at 6.8 µM (top of the series)) was -25.1% (inactive). On to `CCCCCCCCCCOC(=O)Cn1c(COc2ccccc2OC)[n+](C)c2ccccc21`, for which, where the note is “at 19.5 µM (top of the series)”, the growth rescue activity was -82.3% (inactive). Same read-out and setting: as for `Fc1ccccc1COc1ccc(Br)cc1CNCc1ccncc1`, the figure is -7.59% (inactive). As for `O=C(Nc1ccc(Cl)cc1)NC1CCCCC1Cc1ccco1` (centres undefined), the growth rescue activity (at 6.8 µM (top of the series)) was 76.3% (inactive). `O=S1OC(c2ccccc2)c2cc(Cl)ccc21` (centres undefined): for the setting “at 19.5 µM (top of the series)”, the growth rescue activity is -14.3% (inactive). The same measure, in the same setting: then `CC1CC(C)(O)CC(C(O)CC2CC(=O)NC(=O)C2)C1=O` (centres undefined), with 2.36% (inactive); and `Cc1ccc(Sc2cc(C)nc(-c3ccccn3)n2)cc1`, with -67.1% (inactive); and `N#Cc1c(-c2cccc([N+](=O)[O-])c2)nc2n(c1=O)CCS2`, with 1.05% (inactive). Still for that read-out and setting: as for `CCOc1ccc(S(=O)(=O)n2cc(F)c(=O)[nH]c2=O)cc1`, the figure is -4.21% (inactive); as for `O=C(NCCN1C(=O)S/C(=C\c2cccc(Cl)c2Cl)C1=O)C1=COCCO1`, 13.6% (inactive). Still for that read-out and setting: as for `Cc1nc2ccc(NC(=O)Cc3ccc4c(c3)OCCO4)cc2s1`, the figure is 28.8% (inactive); as for `COc1cccc(/C=N/NC(=O)c2nc(-c3ccccc3)cc(-c3ccccc3)n2)c1O`, -39.2% (inactive). Take `CCCCNc1c(-c2cccc(-c3ccc(OC)cc3)c2)nc2ccc(C)cn12`: the growth rescue activity (at 19.5 µM (top of the series)) was -90.6% (inactive).

For `CCn1c(-c2cc(-c3ccc(C)cc3)nc3ccccc23)n[nH]c1=S`, under “at 19.5 µM (top of the series)”, the growth rescue activity was -24.4% (inactive). With `CCCC(C)Sc1nc2c([nH]1)c(=S)n(C)c(=O)n2C` (centres undefined), the growth rescue activity (at 19.5 µM (top of the series)) is -31.9% (inactive). The same measure, in the same setting: then `FC(F)(F)c1cccc(N2CCN(C(=S)NC3CCCCC3)CC2)c1`, with 64.1% (inactive); and `Cc1cc(/C=C2\SC(=S)N(C)C2=O)c(C)n1-c1ccc(O)cc1`, with -39.6% (inactive).

In the case of `Cc1cccc(N=Cc2[nH]c3ccc(Br)c(Cl)c3c2O)c1`, the growth rescue activity (at 19.5 µM (top of the series)) was -14.7% (inactive). On the same count and under the same terms, as for `c1ccc(-c2ccc(SCc3cccnc3)nn2)nc1`, the figure is -9.85% (inactive); as for `O=C1CC(c2cccc([N+](=O)[O-])c2)c2ccc3ccccc3c2N1` (centres undefined), 47.4% (inactive); as for `O=C(COc1ccc(Cl)cc1)Nc1cccc(-c2ccc3nncn3n2)c1`, 13% (inactive).

Consider `CC(C)N1CCN(c2ccc(OC[C@H]3CO[C@](Cn4cncn4)(c4ccc(Cl)cc4Cl)O3)cc2)CC1`, for which the growth rescue activity (at 19.5 µM (top of the series)) was -63.3% (inactive).

As for `Cn1ccsc1=NC(=O)c1ccc([N+](=O)[O-])o1`, the growth rescue activity (at 19.5 µM (top of the series)) was -53.8% (inactive). For the molecule `Clc1ccccc1C(c1ccccc1)(c1ccccc1)n1ccnc1`, the growth rescue activity (at 19.5 µM (top of the series)) was -48.3% (inactive). On the same count and under the same terms, then `CC(C)(C)C(O)C(Cc1ccccc1Cl)n1cncn1` (centres undefined), with -53.7% (inactive); and `Cc1cc2nc(-c3ccc4c(c3)CCC4)ccn2n1`, with -10.6% (inactive); and `C/C(=N\NC(=O)COc1ccccc1-c1ccccc1)c1ccccn1`, with -11.5% (inactive).

Take `COC(=O)c1cccc2c1NC(=O)C2=O`: for the setting “at 19.5 µM (top of the series)”, the growth rescue activity was -14.3% (inactive). Still for that read-out and setting: as for `CN(C)c1ccc(NC2=C(Cl)C(=O)c3ccccc3C2=O)cc1`, the figure is -12.8% (inactive). Same read-out and setting: then `O=c1c(O)c(-c2ccccc2)oc2ccccc12`, with -14.5% (inactive); and `CCc1cc(C(=O)Nc2nc(-c3ccccn3)cs2)sc1C`, with -67.6% (inactive); and `O=S(=O)(NCCc1csc(-c2cccnc2)n1)c1ccc(Cl)s1`, with -65.2% (inactive). On the same count and under the same terms, as for `Oc1c(Br)cc(Br)cc1CNc1ccc(F)cc1`, the figure is -92% (inactive). Regarding `Cn1ccc(=Nc2ccc(NC(=O)c3ccc(N=c4ccn(C)c5ccc([N+](=O)[O-])cc45)cc3)cc2)cc1`, the growth rescue activity (at 19.5 µM (top of the series)) is -76.1% (inactive). On the same count and under the same terms, then `O=[N+]([O-])c1cc(Oc2cccnc2)cc([N+](=O)[O-])c1`, with 5.86% (inactive). Still for that read-out and setting: as for `Cc1ccc(NC(=O)C2COc3ccccc3O2)cc1S(=O)(=O)N1CCCCC1` (centres undefined), the figure is 35.9% (inactive). Still for that read-out and setting: then `CCC1=NN(C(=O)c2cccc(Br)c2)C(O)(c2ccc(Br)cc2)C1` (centres undefined), with -2.16% (inactive).

For the molecule `CN(Cc1ccc(Cl)s1)C(=O)CCl`, where the note is “at 19.5 µM (top of the series)”, the growth rescue activity was 19.3% (inactive). The same measure, in the same setting: then `O=C(Nc1ccc(C2=NCCN2)cc1)c1ccc(C(=O)Nc2ccc(C3=NCCN3)cc2)c(Cl)c1`, with -69% (inactive); and `O/N=C/c1ccccc1OCc1ccc(Cl)cc1`, with 10.8% (inactive); and `Oc1c(C(Nc2ccccn2)c2ccccn2)ccc2cccnc12` (centres undefined), with -61.4% (inactive).

On to `Cc1cccc(N2CCN(C(=O)C3(S(=O)(=O)c4ccc(Cl)cc4)CC3)CC2)c1C`, for which the growth rescue activity (at 19.5 µM (top of the series)) is -38.2% (inactive). The same measure, in the same setting: as for `O=C(N1CCN(c2ccccc2)CC1)C1(S(=O)(=O)c2ccc(Cl)cc2)CC1`, the figure is 21.3% (inactive).

Take `O=C(Sc1cccc2cccnc12)c1ccccc1Br`: the growth rescue activity (at 19.5 µM (top of the series)) was -59.6% (inactive).

On to `N#Cc1c(-c2ccco2)c2c([nH]c1=S)CCCC2`, for which the growth rescue activity (at 19.5 µM (top of the series)) is -16.7% (inactive). The same measure, in the same setting: then `CCN(CC)C(=O)C1CCCc2c1[nH]c1ccc(Cl)cc21` (centres undefined), with -45% (inactive). The same measure, in the same setting: as for `C[n+]1c2cc(N)ccc2cc2ccc(N)cc21`, the figure is -24.4% (inactive) and -10% (inactive); as for `COc1ccc2c(c1)OC[C@H]1[C@H]2N2C(=O)c3cc(C)ccc3NC(=O)[C@@]2(C)[C@H]1c1ccccc1`, 122% (inactive); as for `O=C(c1ccc(-c2ccccc2)c(F)c1)C1CCCN(C(=O)c2cncs2)C1` (centres undefined), -45.2% (inactive). Same read-out and setting: then `Cc1oc2c(c1C(=O)c1ccccc1)C(=O)C(=O)c1ccccc1-2`, with 16.8% (inactive); and `O=C(Nc1nc(-c2ccccc2)c(-c2ccccc2)o1)c1ccc(F)cc1`, with -15.6% (inactive); and `O=C(Oc1c(-c2ccccc2)c(=O)n2c3c(cccc13)CC2)c1cccc([N+](=O)[O-])c1`, with -37.6% (inactive).

Turning to `CCCC(=O)NC(c1ccc(N(C)C)cc1)c1ccc2cccnc2c1O` (centres undefined), for the setting “at 19.5 µM (top of the series)”, the growth rescue activity was -7.33% (inactive). On to `N#Cc1c(N)nc(SCc2ccccc2)c(C#N)c1-c1ccco1`, for which the growth rescue activity (at 19.5 µM (top of the series)) was -27.7% (inactive).

With `O=C1N(c2ccc(Cl)cc2)C(c2cccnc2)N2CCCN12` (centres undefined), the growth rescue activity (at 19.5 µM (top of the series)) was -65.4% (inactive).

Take `CC(C)=CCc1c(O)ccc(C(=O)Cc2ccccc2)c1O`: where the note is “at 19.5 µM (top of the series)”, the growth rescue activity is -92.2% (inactive).

Turning to `CC1(C)CC(=O)C(C2C3=C(CC(C)(C)CC3=O)Oc3c(Br)cc(Br)cc32)=C(O)C1` (centres undefined), for the setting “at 6.8 µM (top of the series)”, the growth rescue activity was -21.5% (inactive). For `COc1cccc(C(C)=C2SC(=S)NC2=O)c1`, where the note is “at 6.8 µM (top of the series)”, the growth rescue activity is -39% (inactive).

With `COC(=O)c1cccc2c1-c1ccccc1/C2=N/O`, where the note is “at 19.5 µM (top of the series)”, the growth rescue activity was 30.5% (inactive). Same read-out and setting: then `O=C(CN1CCN(c2ncc(C(F)(F)F)cc2Cl)CC1)NCCNc1ncc(C(F)(F)F)cc1Cl`, with -35.8% (inactive); and `CCCCCCn1c(=O)c(C(=O)Nc2ncccc2C)c(O)c2ccccc21`, with -12.8% (inactive); and `O=c1c(CO)cc(CO)cc(CO)c1O`, with -26.9% (inactive). Still for that read-out and setting: as for `Cc1nn(CCC#N)c(N)c1C1(O)C(=O)Nc2c(Cl)cc(Cl)cc21` (centres undefined), the figure is 12.9% (inactive).

As for `CN1CCN(C(c2ccccn2)c2cc(Cl)c3cccnc3c2O)CC1` (centres undefined), the growth rescue activity (at 19.5 µM (top of the series)) is -64.1% (inactive).

For `COc1ccc(C(C)(C)C)cc1NC(=O)COC(=O)c1ccc([N+](=O)[O-])o1`, the growth rescue activity (at 19.5 µM (top of the series)) is -88.2% (inactive). The same measure, in the same setting: as for `CCCn1c(=O)c(C(=O)NCc2ccc(OC)c(OC)c2)c(O)c2ccccc21`, the figure is -19.9% (inactive). On the same count and under the same terms, then `Cc1ccc(S(=O)(=O)Nc2ccc(O)c3cccnc23)cc1`, with -0.63% (inactive); and `CC(=O)N(c1ccccc1)c1ccc([N+](=O)[O-])cc1[N+](=O)[O-]`, with -25.3% (inactive). On the same count and under the same terms, then `Cc1cc(SC#N)cc(C)c1NC(=O)CCl`, with -87% (inactive). With `O=S1(=O)CCN2C(=N1)Sc1c2ccc2c1CCCC2`, the growth rescue activity (at 19.5 µM (top of the series)) was 5.5% (inactive).

With `COc1ccc(O)c(C(=O)CC(=O)c2ccccc2C)c1`, the growth rescue activity (at 19.5 µM (top of the series)) was -60.2% (inactive). The same measure, in the same setting: as for `O=C1c2cccc(Cl)c2C(=O)c2c1cccc2N1CCCC1`, the figure is 11.5% (inactive); as for `COC(=O)C(=N/Nc1ccccc1C(=O)OC)/C(C)=N/O`, -7.81% (inactive); as for `c1ccc(-c2ccc(OCCCn3cncn3)cc2)cc1`, -51.8% (inactive). Same read-out and setting: then `N#Cc1c(-c2ccc(Cl)cc2)n(O)c2ccccc12`, with -88.7% (inactive); and `CC(C)C(=O)NC(c1ccco1)c1ccc2cccnc2c1O` (centres undefined), with -67.3% (inactive).

Take `CN(C)c1nc(SCc2ccc(Cl)cc2)nc2c1CCCC2`: the growth rescue activity (at 19.5 µM (top of the series)) is -65.9% (inactive).

Take `N#CC1C(=N)Cc2ccccc2-c2ccccc21` (centres undefined): where the note is “at 19.5 µM (top of the series)”, the growth rescue activity was -20.3% (inactive). On the same count and under the same terms, as for `O=c1c2ccccc2nc(-c2ccc(-c3ccccc3)cc2)n1-c1ccncc1`, the figure is -56.1% (inactive).
